Measurements taken from US12649727B2, “EFGR inhibitor, preparation method therefor and application thereof” (Abbisko Therapeutics Co., Ltd, priority 2020, dated 2026).

Experiments:
Format in all cases: cell-based
[1] = biological target: Ba/F3 EGFR-V769_D770insASV (Homo sapiens, UniProt P00533, DUP767-769, cells depend on it); assay: Proliferation experiment of Ba/F3 cell line, EGFR-V769_D770insASV (CellTiter-Glo); details: cultured for 72 hrs with compound, CTG analysis, read-out: Ba/F3 EGFR-V769_D770insASV IC50
Summary of the method: (§1)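 […] Ba/F3 cells expressing EGFR insertion mutants treated 72 h at 37 °C with 9 concentrations, 3.16-fold dilutions, top 10 μM, 0.1% DMSO, in triplicate. Viability by CellTiter-Glo luminescence with T0 reference plate; IC50 (nM) from non-linear dose-response fit.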

[2] = biological target: Ba/F3 EGFR-D770-N771ins_SVD (Homo sapiens, UniProt P00533, DUP768-770, cells depend on it); assay: Proliferation experiment of Ba/F3 cell line, EGFR-D770-N771ins_SVD (CellTiter-Glo); details: cultured for 72 hrs with compound, CTG analysis, read-out: Ba/F3 EGFR-D770-N771ins_SVD IC50
Summary of the method: as §1

A431 (EGFR-WT) = assay: Proliferation experiment, A431 cell line (CellTiter-Glo); details: Homo sapiens, A-431; A431 cells, cultured for 72 hrs with compound, CTG analysis

Sequence of Ba/F3 EGFR-D770-N771ins_SVD (P00533 with tags, fused parts or gaps DUP768-770): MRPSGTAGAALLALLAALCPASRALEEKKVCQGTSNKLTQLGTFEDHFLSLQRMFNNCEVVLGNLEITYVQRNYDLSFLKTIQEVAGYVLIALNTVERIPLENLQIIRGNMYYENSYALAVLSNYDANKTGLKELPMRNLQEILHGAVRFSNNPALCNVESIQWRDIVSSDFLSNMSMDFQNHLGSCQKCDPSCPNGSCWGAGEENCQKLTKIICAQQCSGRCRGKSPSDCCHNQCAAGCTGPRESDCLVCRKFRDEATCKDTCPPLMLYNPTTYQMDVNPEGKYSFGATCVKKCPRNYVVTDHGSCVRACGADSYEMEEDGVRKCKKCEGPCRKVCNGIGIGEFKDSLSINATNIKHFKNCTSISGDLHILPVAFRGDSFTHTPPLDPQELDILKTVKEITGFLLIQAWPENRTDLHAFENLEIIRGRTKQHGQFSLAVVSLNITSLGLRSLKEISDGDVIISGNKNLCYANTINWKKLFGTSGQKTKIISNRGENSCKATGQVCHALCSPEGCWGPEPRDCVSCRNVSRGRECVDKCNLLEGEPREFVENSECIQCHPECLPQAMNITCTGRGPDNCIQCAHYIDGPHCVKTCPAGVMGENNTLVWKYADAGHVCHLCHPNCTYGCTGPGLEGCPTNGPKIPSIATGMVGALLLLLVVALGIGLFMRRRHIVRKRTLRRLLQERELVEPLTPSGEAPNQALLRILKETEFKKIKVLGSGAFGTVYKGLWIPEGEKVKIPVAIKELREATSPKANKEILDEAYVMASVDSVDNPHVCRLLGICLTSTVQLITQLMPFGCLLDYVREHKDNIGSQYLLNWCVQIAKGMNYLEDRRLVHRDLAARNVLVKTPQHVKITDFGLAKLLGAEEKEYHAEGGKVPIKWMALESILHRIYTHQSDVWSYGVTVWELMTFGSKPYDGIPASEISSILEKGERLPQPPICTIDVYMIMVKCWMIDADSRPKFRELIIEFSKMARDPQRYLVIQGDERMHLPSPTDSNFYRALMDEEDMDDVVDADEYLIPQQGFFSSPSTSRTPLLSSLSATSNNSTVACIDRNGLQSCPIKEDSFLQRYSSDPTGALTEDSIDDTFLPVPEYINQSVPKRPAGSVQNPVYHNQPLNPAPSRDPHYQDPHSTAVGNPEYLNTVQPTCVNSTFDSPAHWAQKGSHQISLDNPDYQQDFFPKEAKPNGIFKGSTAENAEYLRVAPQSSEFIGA
Sequence of Ba/F3 EGFR-V769_D770insASV (P00533 with tags, fused parts or gaps DUP767-769): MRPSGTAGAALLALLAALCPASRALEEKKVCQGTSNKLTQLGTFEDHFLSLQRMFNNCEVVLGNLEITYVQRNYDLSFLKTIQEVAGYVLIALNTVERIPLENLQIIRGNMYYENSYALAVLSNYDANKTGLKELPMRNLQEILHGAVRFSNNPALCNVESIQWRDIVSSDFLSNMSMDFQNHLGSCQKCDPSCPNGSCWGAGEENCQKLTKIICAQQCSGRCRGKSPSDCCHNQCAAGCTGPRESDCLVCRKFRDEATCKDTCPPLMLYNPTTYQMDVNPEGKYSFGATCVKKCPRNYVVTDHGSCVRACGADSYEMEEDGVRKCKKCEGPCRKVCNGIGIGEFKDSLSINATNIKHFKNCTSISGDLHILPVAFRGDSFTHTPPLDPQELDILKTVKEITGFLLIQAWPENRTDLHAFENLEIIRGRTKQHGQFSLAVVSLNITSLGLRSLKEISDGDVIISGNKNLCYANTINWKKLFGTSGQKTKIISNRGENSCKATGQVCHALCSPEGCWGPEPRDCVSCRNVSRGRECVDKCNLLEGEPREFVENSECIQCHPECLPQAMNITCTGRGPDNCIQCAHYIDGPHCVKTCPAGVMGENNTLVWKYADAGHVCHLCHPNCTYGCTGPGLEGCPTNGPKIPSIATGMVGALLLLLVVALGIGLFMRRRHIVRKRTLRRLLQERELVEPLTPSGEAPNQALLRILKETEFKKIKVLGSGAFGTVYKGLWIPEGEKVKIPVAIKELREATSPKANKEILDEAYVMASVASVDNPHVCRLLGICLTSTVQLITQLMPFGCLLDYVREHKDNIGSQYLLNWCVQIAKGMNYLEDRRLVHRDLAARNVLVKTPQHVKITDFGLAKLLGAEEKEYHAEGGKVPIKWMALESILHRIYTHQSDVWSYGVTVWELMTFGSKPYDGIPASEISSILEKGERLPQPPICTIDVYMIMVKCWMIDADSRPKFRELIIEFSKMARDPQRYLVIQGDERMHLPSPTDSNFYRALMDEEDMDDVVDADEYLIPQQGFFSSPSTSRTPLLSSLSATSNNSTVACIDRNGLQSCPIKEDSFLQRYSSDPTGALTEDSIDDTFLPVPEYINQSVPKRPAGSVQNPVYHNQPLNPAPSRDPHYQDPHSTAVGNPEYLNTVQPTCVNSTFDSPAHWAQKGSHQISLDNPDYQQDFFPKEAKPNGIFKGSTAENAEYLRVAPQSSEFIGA

| SMILES | GI50 [1] [nM] | GI50 [2] [nM] | IC50 (A431 (EGFR-WT)) [nM] |
| --- | --- | --- | --- |
| C=CC(=O)Nc1cc2c(Nc3ccnc(-c4ccc(F)cc4F)c3)ncnc2cc1OCCN1CCOCC1 [Example 77, N-(4-((2-(2,4-difluorophenyl)pyridin-4-yl)amino)-7-(2-morpholinoethoxy)quinazolin-6-yl)acrylamide] | 4.4 | 1.6 | 317 |
| C=C(F)C(=O)Nc1cc2c(Nc3ccnc(-c4ccccc4F)c3)ncnc2cc1OC1CC1 [Example 90, N-(7-cyclopropoxy-4-((2-(2-fluorophenyl)pyridin-4-yl)amino)quinazolin-6-yl)-2-fluoroacrylamide] | 35.8 | 11.9 | 461 |
| C=CC(=O)Nc1cc2c(Nc3ccnc(-c4ccccc4F)c3)ncnc2cc1OCCN1CCOCC1 [Example 68, N-(4-((2-(2-fluorophenyl)pyridin-4-yl)amino)-7-(2-morpholinoethoxy)quinazolin-6-yl)acrylamide] | 2.5 | 1.3 | 19.3 |
| C=CC(=O)Nc1cc2c(Nc3cccc(-c4ccc(F)cc4F)c3)ncnc2cc1OCCN1CCC(F)(F)CC1 [Example 21, N-(4-((2′,4′-difluoro-[1,1′-biphenyl]-3-yl)amino)-7-(2-(4,4-difluoropiperidin-1-yl)ethoxy)quinazolin-6-yl)acrylamide] | 240 | 104 | 966 |
| C=CC(=O)Nc1cc2c(Nc3ccnc(-c4ccccc4F)c3)ncnc2cc1O[C@@H]1CCN(CC)C1 [Example 124, (R)-N-(7-((1-ethylpyrrolidin-3-yl)oxy)-4-((2-(2-fluorophenyl)pyridin-4-yl)amino)quinazolin-6-yl)acrylamide] | 9.1 | 2.9 | 104 |
| C=CC(=O)Nc1cc2c(Nc3ccnc(-c4ccccc4F)c3)ncnc2cc1O[C@@H]1CCN(C2COC2)C1 [Example 114, (R)—N-(4-((2-(2-fluorophenyl)pyridin-4-yl)amino)-7-((1-(oxetan-3-yl)pyrrolidin-3-yl)oxy)quinazolin-6-yl)acrylamide] | 3.3 | 1.1 | 26.3 |
| C=CC(=O)Nc1cc2c(Nc3cccc(-c4ccc(F)cc4F)c3)ncnc2cc1O[C@@H]1CCN(C)C1 [Example 8, (R)-N-(4-((2′,4′-difluoro-[1,1′-biphenyl]-3-yl)amino)-7-((1-methylpyrrolidin-3-yl)oxy)quinazolin-6-yl)acrylamide] | 178 | 88.8 | 343 |
| C=C(F)C(=O)Nc1cc2c(Nc3ccnc(-c4ccccc4F)c3)ncnc2cc1N1CCC1 [Example 105, N-(7-(azetidin-1-yl)-4-((2-(2-fluorophenyl)pyridin-4-yl)amino)quinazolin-6-yl)-2-fluoroacrylamide] | 35 | 12.7 | 2500 |
| C=CC(=O)Nc1cc2c(Nc3ccnc(-c4ccccc4F)c3)ncnc2cc1F [Example 92, N-(7-fluoro-4-((2-(2-fluorophenyl)pyridin-4-yl)amino)quinazolin-6-yl)acrylamide] | 16.7 | 30.5 | 355 |
| C=CC(=O)Nc1cc2c(Nc3ccnc(-c4ccccc4F)c3)ncnc2cc1O[C@@H]1CCN(C2CC2)C1 [Example 113, (R)—N-(7-((1-cyclopropylpyrrolidin-3-yl)oxy)-4-((2-(2-fluorophenyl)pyridin-4-yl)amino)quinazolin-6-yl)acrylamide] | 11.6 | 3.9 | 173 |

Further lines, results first:

| GI50 [1] [nM] | GI50 [2] [nM] | IC50 (A431 (EGFR-WT)) [nM] | SMILES |
| --- | --- | --- | --- |
| 23.6 | 11 | 348 | C=CC(=O)Nc1cc2c(Nc3cncc(-c4c(F)cccc4F)c3)ncnc2cc1OCCCN1CCN(C)CC1 [Example 62, N-(4-((5-(2,6-difluorophenyl)pyridin-3-yl)amino)-7-(3-(4-methylpiperazin-1-yl)propoxy)quinazolin-6-yl)acrylamide] |
| 54.1 | 25.3 | 68.1 | C=CC(=O)Nc1cc2c(Nc3cccc(-c4c(F)cccc4F)c3)ncnc2cc1OCCCN1CCN(C2COC2)CC1 [Example 30, N-(4-((2′,6′-difluoro-[1,1′-biphenyl]-3-yl)amino)-7-(3-(4-(oxetan-3-yl)piperazin-1-yl)propoxy)quinazolin-6-yl)acrylamide] |
| 21 | 22.6 | 362 | C=CC(=O)Nc1cc2c(Nc3cccc(-c4c(F)cccc4F)c3)ncnc2cc1OCCCN1CCN(CC)CC1 [Example 28, N-(4-((2′,6′-difluoro-[1,1′-biphenyl]-3-yl)amino)-7-(3-(4-ethylpiperazin-1-yl)propoxy)quinazolin-6-yl)acrylamide] |
| 2.4 | 1.6 | 20.5 | C=CC(=O)Nc1cc2c(Nc3ccnc(-c4ccccc4F)c3)ncnc2cc1OCCCN1CCN(CCOC)CC1 [Example 123, N-(4-((2-(2-fluorophenyl)pyridin-4-yl)amino)-7-(3-(4-(2-methoxyethyl)piperazin-1-yl)propoxy)quinazolin-6-yl)acrylamide] |
| 37.9 | 23.3 | 48 | C=CC(=O)Nc1cc2c(Nc3ccc(F)c(-c4ccccn4)c3)ncnc2cc1OCCCN1CCN(C)CC1 [Example 50, N-(4-((4-fluoro-3-(pyridin-2-yl)phenyl)amino)-7-(3-(4-methylpiperazin-1-yl)propoxy)quinazolin-6-yl)acrylamide] |
| 49.3 | 27.8 | 284 | C=CC(=O)Nc1cc2c(Nc3ccc(F)c(-c4ncccc4F)c3)ncnc2cc1OCCCN1CCN(C)CC1 [Example 43, N-(4-((4-fluoro-3-(3-fluoropyridin-2-yl)phenyl)amino)-7-(3-(4-methylpiperazin-1-yl)propoxy)quinazolin-6-yl)acrylamide] |
| 15.8 | 11.9 | 120 | C=CC(=O)Nc1cc2c(Nc3cccc(-c4ccccc4F)c3)ncnc2cc1OCCCN1CCN(C)CC1 [Example 46, N-(4-((2′-fluoro-[1,1′-biphenyl]-3-yl)amino)-7-(3-(4-methylpiperazin-1-yl)propoxy)quinazolin-6-yl)acrylamide] |
| 36.5 | 19.2 | 927 | C=CC(=O)Nc1cc2c(Nc3ccc(F)c(-c4ccc(F)cc4)c3)ncnc2cc1OCCCN1CCOCC1 [Example 41, N-(4-((4′,6-difluoro-[1,1′-biphenyl]-3-yl)amino)-7-(3-morpholinopropoxy)quinazolin-6-yl)acrylamide] |
| 6.8 | 3.8 | 63.9 | C=CC(=O)Nc1cc2c(Nc3ccnc(-c4ccccc4F)c3)ncnc2cc1OCCCN1CCN(CCO)CC1 [Example 122, N-(4-((2-(2-fluorophenyl)pyridin-4-yl)amino)-7-(3-(4-(2-hydroxyethyl)piperazin-1-yl)propoxy)quinazolin-6-yl)acrylamide] |
| 11.2 | 4.2 | 226 | C=CC(=O)Nc1cc2c(Nc3cncc(-c4ccccc4F)c3)ncnc2cc1OCCCN1CCN(C)CC1 [Example 59, N-(4-((5-(2-fluorophenyl)pyridin-3-yl)amino)-7-(3-(4-methylpiperazin-1-yl)propoxy)quinazolin-6-yl)acrylamide] |
| 6.8 | 4.2 | 32.1 | C=CC(=O)Nc1cc2c(Nc3ccnc(-c4ccc(F)cc4F)c3)ncnc2cc1OCCCN1CCN(C)CC1 [Example 79, N-(4-((2-(2,4-difluorophenyl)pyridin-4-yl)amino)-7-(3-(4-methylpiperazin-1-yl)propoxy)quinazolin-6-yl)acrylamide] |
| 44.3 | 15.2 | 204 | C=CC(=O)Nc1cc2c(Nc3cccc(-c4c(F)cccc4F)c3)ncnc2cc1OCCCN1CCOCC1 [Example 27, N-(4-((2′,6′-difluoro-[1,1′-biphenyl]-3-yl)amino)-7-(3-morpholinopropoxy)quinazolin-6-yl)acrylamide] |
| 55.6 | 31.8 | 287 | C=CC(=O)Nc1cc2c(Nc3ccc(F)c(-c4ccc(F)cc4)c3)ncnc2cc1OCCCN1CCN(C)CC1 [Example 42, N-(4-((4′,6-difluoro-[1,1′-biphenyl]-3-yl)amino)-7-(3-(4-methylpiperazin-1-yl)propoxy)quinazolin-6-yl)acrylamide] |
| 119 | 29.3 | 479 | C=CC(=O)Nc1cc2c(Nc3cc(-c4ccc(F)cc4F)ccc3F)ncnc2cc1OCCCN1CCOCC1 [Example 11, N-(7-(3-morpholinopropoxy)-4-((2′,4,4′-trifluoro-[1,1′-biphenyl]-3-yl)amino)quinazolin-6-yl)acrylamide] |
